The test system of assay [1] is PRC2-mediated histone H3 methylation. Description: Tri-Methyl Histone H3 (Lys 27) Sandwich ELISA in Pfeiffer cells: inhibition of PRC2-mediated histone H3 methylation. The format is cell-based, human. The following applies: Inhibition of EZH2-mediated histone H3 trimethylation, Pfeiffer cells (EZH2 A677G), 96 hours incubation. The gist of the method:
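Pfeiffer DLBCL cells (EZH2 A677G mutant) treated with 3-fold serial dilutions, 1µM to 0.15 nM final, for 96 hours at 37°C. Acid (0.4M HCl) histone extracts, neutralized, assayed by H3K27me3 sandwich ELISA with HRP/TMB read at 450 nm.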
A general note: An ELISA detects its analyte on a solid surface through an enzyme-linked reagent.

Assay [2] addresses purified human, His-tagged PRC2 complex (Homo sapiens, UniProt O75530+Q15910). Description: Hot Spot HMT assay: inhibition of PRC2 enzymatic activity (transfer of tritiated methyl from SAM to core histone, filter binding). It is filed as biochemical. The following applies: Inhibition of PRC2-mediated enzymatic activity; 10 nM PRC2 complex, 0.05 mg/ml core histone H3, 1 uM 3H-SAM, 1 hr at 30°C. The gist of the method: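 Five-subunit complex (His-EZH2, Flag-EED, His-SUZ12, His-AEBP2, His-RbAp48) at 10 nM with 0.05 mg/ml core histone H3, pH 8 Tris buffer, 1% DMSO; 20 min compound pre-incubation at 30°C. Started with 1 uM [3H]-SAM, 1 hr at 30°C; tritiated H3 counted by scintillation. Compounds diluted from 1.0 µM top concentration.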

For the next assay, the system named is Karpas 422 cells. Description: Karpas 422 cell viability, CTG (Cell Titre Glo) assay. It is filed as cell-based, human. The following applies: Inhibition of proliferation of Karpas 422 cells (EZH2 Y641N), viability measured Day 4, Day 7 or Day 11, time point of the tabulated values not stated. The essentials: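 Karpas 422 cells (EZH2 Y641N, DLBCL) plated at 1000 cells/well in RPMI with 20% FBS, exposed to compound 10µM down to 1.5nM in 3-fold steps at 37 °C. Viability by CellTiter-Glo on Days 4, 7 and 11; Day 11 plates re-fed with fresh medium and compound on Day 7. IC50 per time point.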

purified human, His-tagged PRC2 complex, sequence (Q15910 whole entry): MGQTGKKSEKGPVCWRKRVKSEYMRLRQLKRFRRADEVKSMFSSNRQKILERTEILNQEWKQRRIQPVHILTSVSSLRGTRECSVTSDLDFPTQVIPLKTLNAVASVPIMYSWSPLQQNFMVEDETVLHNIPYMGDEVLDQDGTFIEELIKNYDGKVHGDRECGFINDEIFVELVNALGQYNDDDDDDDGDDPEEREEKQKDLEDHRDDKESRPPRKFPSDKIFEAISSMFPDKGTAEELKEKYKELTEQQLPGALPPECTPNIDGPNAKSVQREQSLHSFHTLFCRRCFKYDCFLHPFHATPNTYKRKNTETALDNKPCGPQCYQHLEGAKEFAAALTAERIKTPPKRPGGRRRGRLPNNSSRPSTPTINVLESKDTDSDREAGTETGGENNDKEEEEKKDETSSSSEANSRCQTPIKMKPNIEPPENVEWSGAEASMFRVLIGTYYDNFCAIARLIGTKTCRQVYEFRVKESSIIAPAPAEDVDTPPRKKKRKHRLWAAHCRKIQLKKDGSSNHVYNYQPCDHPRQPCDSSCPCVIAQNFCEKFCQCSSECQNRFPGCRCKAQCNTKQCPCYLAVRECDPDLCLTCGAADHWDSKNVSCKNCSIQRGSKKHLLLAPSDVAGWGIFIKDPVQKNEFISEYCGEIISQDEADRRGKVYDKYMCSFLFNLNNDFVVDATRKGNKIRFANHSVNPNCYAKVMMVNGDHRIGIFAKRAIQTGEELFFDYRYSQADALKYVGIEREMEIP
purified human, His-tagged PRC2 complex, sequence (O75530 whole entry): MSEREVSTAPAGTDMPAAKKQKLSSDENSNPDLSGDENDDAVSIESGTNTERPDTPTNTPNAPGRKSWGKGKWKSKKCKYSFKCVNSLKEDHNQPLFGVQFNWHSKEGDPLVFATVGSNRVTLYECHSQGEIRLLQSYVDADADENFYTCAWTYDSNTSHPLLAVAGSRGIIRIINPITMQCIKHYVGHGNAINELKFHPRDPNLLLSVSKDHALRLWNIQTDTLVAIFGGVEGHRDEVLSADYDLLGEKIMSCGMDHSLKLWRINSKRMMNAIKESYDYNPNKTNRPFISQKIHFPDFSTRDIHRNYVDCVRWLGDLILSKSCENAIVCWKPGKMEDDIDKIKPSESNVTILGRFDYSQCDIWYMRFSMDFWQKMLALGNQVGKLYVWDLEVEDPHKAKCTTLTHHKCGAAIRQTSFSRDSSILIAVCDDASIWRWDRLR
purified human, His-tagged PRC2 complex, sequence (Q15022 whole entry partner): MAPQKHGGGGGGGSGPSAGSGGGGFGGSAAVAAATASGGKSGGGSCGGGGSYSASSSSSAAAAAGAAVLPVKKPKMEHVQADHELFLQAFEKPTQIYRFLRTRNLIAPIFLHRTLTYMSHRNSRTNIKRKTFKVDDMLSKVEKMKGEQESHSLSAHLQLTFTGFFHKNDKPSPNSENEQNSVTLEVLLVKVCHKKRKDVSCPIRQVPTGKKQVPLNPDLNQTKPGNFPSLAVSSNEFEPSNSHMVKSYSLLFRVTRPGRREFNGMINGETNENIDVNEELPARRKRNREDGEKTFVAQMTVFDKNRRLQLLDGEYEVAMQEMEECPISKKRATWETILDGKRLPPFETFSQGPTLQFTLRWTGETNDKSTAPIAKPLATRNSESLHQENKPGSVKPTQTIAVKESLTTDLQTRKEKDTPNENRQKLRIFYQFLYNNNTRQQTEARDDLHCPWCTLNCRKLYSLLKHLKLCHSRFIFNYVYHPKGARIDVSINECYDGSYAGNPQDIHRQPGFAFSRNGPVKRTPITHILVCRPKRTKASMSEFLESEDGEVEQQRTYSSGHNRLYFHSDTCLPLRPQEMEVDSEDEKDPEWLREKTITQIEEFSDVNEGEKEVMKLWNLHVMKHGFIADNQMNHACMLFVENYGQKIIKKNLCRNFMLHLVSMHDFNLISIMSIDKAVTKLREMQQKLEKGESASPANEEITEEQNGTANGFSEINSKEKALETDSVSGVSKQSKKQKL
purified human, His-tagged PRC2 complex, sequence (Q6ZN18 whole entry partner): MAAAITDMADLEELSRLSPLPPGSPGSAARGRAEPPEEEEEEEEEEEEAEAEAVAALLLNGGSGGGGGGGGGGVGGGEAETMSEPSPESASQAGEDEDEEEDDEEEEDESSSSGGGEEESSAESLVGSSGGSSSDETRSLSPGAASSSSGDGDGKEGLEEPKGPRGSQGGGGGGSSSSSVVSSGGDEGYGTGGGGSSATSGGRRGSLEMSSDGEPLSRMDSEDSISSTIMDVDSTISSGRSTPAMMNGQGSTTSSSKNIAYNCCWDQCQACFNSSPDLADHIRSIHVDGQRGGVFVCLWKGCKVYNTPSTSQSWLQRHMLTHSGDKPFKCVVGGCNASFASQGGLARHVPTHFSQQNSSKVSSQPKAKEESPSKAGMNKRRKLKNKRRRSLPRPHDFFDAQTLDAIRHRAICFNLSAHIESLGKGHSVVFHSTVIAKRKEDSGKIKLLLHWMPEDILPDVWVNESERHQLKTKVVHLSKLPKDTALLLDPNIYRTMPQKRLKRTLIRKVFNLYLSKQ
purified human, His-tagged PRC2 complex, sequence (Q09028 whole entry partner): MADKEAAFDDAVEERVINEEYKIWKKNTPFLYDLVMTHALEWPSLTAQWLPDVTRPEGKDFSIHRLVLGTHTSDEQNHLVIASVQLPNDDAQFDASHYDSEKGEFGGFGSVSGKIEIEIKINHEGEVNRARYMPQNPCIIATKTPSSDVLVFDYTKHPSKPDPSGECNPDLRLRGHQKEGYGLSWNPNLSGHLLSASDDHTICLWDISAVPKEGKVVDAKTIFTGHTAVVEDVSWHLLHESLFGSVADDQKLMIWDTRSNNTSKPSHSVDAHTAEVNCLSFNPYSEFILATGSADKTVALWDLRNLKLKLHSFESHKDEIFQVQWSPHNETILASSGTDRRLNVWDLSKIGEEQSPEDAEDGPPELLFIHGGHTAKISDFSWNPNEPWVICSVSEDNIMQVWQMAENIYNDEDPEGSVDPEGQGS

Turning to `Cc1cc(-c2cnc(NCc3c(F)ccc4c3CCO4)n3cc(C#N)nc23)ccc1CN(C)C` [Example 200, 8-(4-((dimethylamino)methyl)-3-methylphenyl)-5-(((5-fluoro-2,3-dihydrobenzofuran-4-yl)methyl)amino)imidazo[1,2-c]pyrimidine-2-carbonitrile], the IC50 in assay [1] (Homo sapiens) is 100 to 500 nM; in assay [2], 100 to 500 nM; with Karpas 422 cells (Homo sapiens), ≤ 250 nM.
For `CN(C)CCOc1ccc(-c2cnc(NCc3c(F)ccc4c3CCO4)n3cc(C#N)nc23)cc1` [Example 189, 8-(4-(2-(dimethylamino)ethoxy)phenyl)-5-(((5-fluoro-2,3-dihydrobenzofuran-4-yl)methyl)amino)imidazo[1,2-c]pyrimidine-2-carbonitrile], the concentration for half-maximal inhibition (IC50) in assay [1] (Homo sapiens) is 100 to 500 nM; in assay [2], 100 to 500 nM; with Karpas 422 cells (Homo sapiens), ≤ 250 nM.
As to `CN(C)S(=O)(=O)c1ccc(-c2cnc(NCc3c(F)ccc4c3CCO4)n3cc(C#N)nc23)cc1` [Example 58, 4-(2-cyano-5-(((5-fluoro-2,3-dihydrobenzofuran-4-yl)methyl)amino)imidazo[1,2-c]pyrimidin-8-yl)-N,N-dimethylbenzenesulfonamide], the values for the IC50 (in assay [1] (Homo sapiens); in assay [2]; with Karpas 422 cells (Homo sapiens)) were 100 to 500 nM, < 100 nM and ≤ 250 nM, respectively.
The like results for `N#Cc1cn2c(NCc3c(F)ccc4c3CCO4)ncc(-c3cccc(C(=O)O)c3)c2n1` [Example 174, 3-(2-cyano-5-(((5-fluoro-2,3-dihydrobenzofuran-4-yl)methyl)amino)imidazo[1,2-c]pyrimidin-8-yl)benzoic acid] were, in that order, > 500 nM, < 100 nM and > 500 nM.
The like results for `N#Cc1cn2c(NCc3c(F)ccc4c3CCO4)ncc(-c3ccccn3)c2n1` [Example 146, 5-(((5-fluoro-2,3-dihydrobenzofuran-4-yl)methyl)amino)-8-(pyridin-2-yl)imidazo[1,2-c]pyrlmldlne-2-carbonltrlle] were, in that order, 100 to 500 nM, 100 to 500 nM and ≤ 250 nM.
For `Cc1cc(-c2cnc(NCc3c(F)ccc4sccc34)n3cc(C#N)nc23)n(C)n1` [Example 81, 8-(1,3-dimethyl-1H-pyrazol-5-yl)-5-(((5-fluorobenzo[b]thiophen-4-yl)methyl)amino)imidazo[1,2-c]pyrimidine-2-carbonitrile], the IC50 (in assay [1] (Homo sapiens); in assay [2]; in the assay on Karpas 422 cells (Homo sapiens)) was > 500 nM in each case.
On to `N#Cc1cn2c(NCc3c(F)ccc4c3CCO4)ncc(C3CC3)c2n1` [Example 77, 8-cyclopropyl-5-(((5-fluoro-2,3-dihydrobenzofuran-4-yl)methyl)amino)imidazo[1,2-c]pyrimidine-2-carbonitrile], for which the results for the 50% inhibitory concentration (IC50) (in assay [1] (Homo sapiens); in assay [2]; with Karpas 422 cells (Homo sapiens)) were > 500 nM, 100 to 500 nM and > 500 nM, respectively.
Consider `N#Cc1cn2c(NCc3c(F)ccc4c3CCO4)ncc(-c3ccc(C4CCCO4)cc3)c2n1` (stereo not drawn) [Example 162, 5-(((5-fluoro-2,3-dihydrobenzofuran-4-yl)methyl)amino)-8-(4-(tetrahydrofuran-2-yl)phenyl)imidazo[1,2-c]pyrimidine-2-carbonitrile], for which the IC50 in assay [1] (Homo sapiens) is 100 to 500 nM; in assay [2] it was < 100 nM; with Karpas 422 cells (Homo sapiens) it was 250 to 500 nM.
The like results for `Cc1cc(S(=O)(=O)C(F)(F)F)ccc1-c1cnc(NCc2c(F)ccc3c2CCO3)n2cc(C#N)nc12` [Example 184, 5-(((5-fluoro-2,3-dihydrobenzofuran-4-yl)methyl)amino)-8-(2-methyl-4-((trifluoromethyl)sulfonyl)phenyl)imidazo[1,2-c]pyrimidine-2-carbonitrile] were, in that order, 100 to 500 nM, 100 to 500 nM and 250 to 500 nM.
`COCCOc1ncc(-c2cnc(NCc3c(F)ccc4c3CCO4)n3cc(C#N)nc23)cn1` [Example 191, 5-(((5-fluoro-2,3-dihydrobenzofuran-4-yl)methyl)amino)-8-(2-(2-methoxyethoxy)pyrimidin-5-yl)imidazo[1,2-c]pyrimidine-2-carbonitrile]: the IC50 in assay [1] (Homo sapiens) was 100 to 500 nM; in assay [2], 100 to 500 nM; in the assay with Karpas 422 cells (Homo sapiens) it was 250 to 500 nM.
Take `N#Cc1cn2c(NCc3c(F)ccc4c3CCO4)ncc(-c3ccnn3C3CC3)c2n1` [Example 193, 8-(1-cyclopropyl-1H-pyrazol-5-yl)-5-(((5-fluoro-2,3-dihydrobenzofuran-4-yl)methyl)amino)imidazo[1,2-c]pyrimidine-2-carbonitrile]: the figures for the IC50 (in assay [1] (Homo sapiens); in assay [2]; in the assay with Karpas 422 cells (Homo sapiens)) were 100 to 500 nM, < 100 nM and ≤ 250 nM, respectively.
For `CN(C)Cc1ccc(-c2cnc(NCc3c(F)ccc4c3CCO4)n3cc(C#N)nc23)c(C#N)c1` [Example 198, 8-(2-cyano-4-((dimethylamino)methyl)phenyl)-5-(((5-fluoro-2,3-dihydrobenzofuran-4-yl)methyl)amino)imidazo[1,2-c]pyrimidine-2-carbonitrile], the IC50 in assay [1] (Homo sapiens) was 100 to 500 nM; in assay [2] it was < 100 nM; with Karpas 422 cells (Homo sapiens), ≤ 250 nM.
With “5-(2-cyano-5-(((5-fluoro-2,3-dihydrobenzofuran-4-yl)methyl)amino)imidazo[1,2-c]pyrimidin-8-yl)-1-methyl-1H-pyrazole-3-carboxylic acid [Example 157]”, the IC50 in assay [1] was ≤ 100 nM; in assay [2] it was < 100 nM; with Karpas 422 cells, ≤ 250 nM.
Consider `CC(c1ccc(-c2cnc(NCc3c(F)ccc4c3CCO4)n3cc(C#N)nc23)cc1)N(C)C` (stereo not drawn) [Example 199, 8-(4-(1-(dimethylamino)ethyl)phenyl)-5-(((5-fluoro-2,3-dihydrobenzofuran-4-yl)methyl)amino)imidazo[1,2-c]pyrimidine-2-carbonitrile], for which the results for the IC50 (in assay [1] (Homo sapiens); in assay [2]; in the assay with Karpas 422 cells (Homo sapiens)) were 100 to 500 nM, < 100 nM and ≤ 250 nM, respectively.
The like results for `COCCOc1ccc(-c2cnc(NCc3c(F)ccc4c3CCO4)n3cc(C#N)nc23)cn1` [Example 158, 5-(((5-fluoro-2,3-dihydrobenzofuran-4-yl)methyl)amino)-8-(6-(2-methoxyethoxy)pyridin-3-yl)imidazo[1,2-c]pyrimidine-2-carbonitrile] were, in that order, 100 to 500 nM, 100 to 500 nM and 250 to 500 nM.
The like results for `Cc1ncccc1-c1cnc(NCc2c(F)ccc3c2CCO3)n2cc(C(N)=O)nc12` [Example 137, 5-(((5-fluoro-2,3-dihydrobenzofuran-4-yl)methyl)amino)-8-(2-methylpyridin-3-yl)imidazo[1,2-c]pyrimidine-2-carboxamide] were, in that order, 100 to 500 nM, < 100 nM and ≤ 250 nM.
The like results for `[2H]C([2H])(c1ccc(-c2cnc(NCc3c(F)ccc4c3CCO4)n3cc(C#N)nc23)c(C)c1)N(C)C` [Example 173, 8-(4-((dimethylamino)methyl-d2)-2-methylphenyl)-5-(((5-fluoro-2,3-dihydrobenzofuran-4-yl)methyl)amino)imidazo[1,2-c]pyrimidine-2-carbonitrile] were, in that order, ≤ 100 nM, < 100 nM and ≤ 250 nM.
In the case of `N#Cc1cn2c(NCc3c(F)ccc4c3CCO4)ncc(-c3ccc(C4CC(=O)N4)cc3)c2n1` (stereo not drawn) [Example 222, 5-(((5-fluoro-2,3-dihydrobenzofuran-4-yl)methyl)amino)-8-(4-(4-oxoazetidin-2-yl)phenyl)imidazo[1,2-c]pyrimidine-2-carbonitrile], the values for the IC50 (in assay [1] (Homo sapiens); in assay [2]; in the assay with Karpas 422 cells (Homo sapiens)) were ≤ 100 nM, < 100 nM and ≤ 250 nM, respectively.
The like results for `CN(C)CCn1nccc1-c1cnc(NCc2c(F)ccc3c2CCO3)n2cc(C#N)nc12` [Example 230, 8-(1-(2-(dimethylamino)ethyl)-1H-pyrazol-5-yl)-5-(((5-fluoro-2,3-dihydrobenzofuran-4-yl)methyl)amino)imidazo[1,2-c]pyrimidine-2-carbonitrile] were, in that order, ≤ 100 nM, < 100 nM and ≤ 250 nM.
In the case of `N#Cc1cn2c(NCc3c(F)ccc4c3CCO4)ncc(-c3ccc([C@H]4CCCN4)cc3)c2n1` [Example 220, (R)-5-(((5-fluoro-2,3-dihydrobenzofuran-4-yl)methyl)amino)-8-(4-(pyrrolidin-2-yl)phenyl)imidazo[1,2-c]pyrimidine-2-carbonitrile], the figures for the IC50 (in assay [1] (Homo sapiens); in assay [2]; with Karpas 422 cells (Homo sapiens)) were 100 to 500 nM, 100 to 500 nM and ≤ 250 nM, respectively.
Regarding `N#Cc1cn2c(NCc3c(F)ccc4c3CCO4)ncc(-c3ccc(CN4CCOCC4)cc3)c2n1` [Example 75, 5-(((5-fluoro-2,3-dihydrobenzofuran-4-yl)methyl)amino)-8-(4-(morpholinomethyl)phenyl)imidazo[1,2-c]pyrimidine-2-carbonitrile], the 50% inhibitory concentration (IC50) in assay [1] (Homo sapiens) was 100 to 500 nM; in assay [2], < 100 nM; in the assay with Karpas 422 cells (Homo sapiens) it was ≤ 250 nM.

The IC50 is the concentration that inhibits the measured activity by half. The low end stands for greater potency, the high end for weaker potency.
